Assay results published in PMC3914206.

Tests used:
Assay type in all cases: binding
[1] = molecular target: T1, panel of 442 kinases (Homo sapiens, UniProt O00444); details: Compound Concentration 10 µM
T1 construct: purchased KINOMEscan
T1 sequence (O00444 1-970): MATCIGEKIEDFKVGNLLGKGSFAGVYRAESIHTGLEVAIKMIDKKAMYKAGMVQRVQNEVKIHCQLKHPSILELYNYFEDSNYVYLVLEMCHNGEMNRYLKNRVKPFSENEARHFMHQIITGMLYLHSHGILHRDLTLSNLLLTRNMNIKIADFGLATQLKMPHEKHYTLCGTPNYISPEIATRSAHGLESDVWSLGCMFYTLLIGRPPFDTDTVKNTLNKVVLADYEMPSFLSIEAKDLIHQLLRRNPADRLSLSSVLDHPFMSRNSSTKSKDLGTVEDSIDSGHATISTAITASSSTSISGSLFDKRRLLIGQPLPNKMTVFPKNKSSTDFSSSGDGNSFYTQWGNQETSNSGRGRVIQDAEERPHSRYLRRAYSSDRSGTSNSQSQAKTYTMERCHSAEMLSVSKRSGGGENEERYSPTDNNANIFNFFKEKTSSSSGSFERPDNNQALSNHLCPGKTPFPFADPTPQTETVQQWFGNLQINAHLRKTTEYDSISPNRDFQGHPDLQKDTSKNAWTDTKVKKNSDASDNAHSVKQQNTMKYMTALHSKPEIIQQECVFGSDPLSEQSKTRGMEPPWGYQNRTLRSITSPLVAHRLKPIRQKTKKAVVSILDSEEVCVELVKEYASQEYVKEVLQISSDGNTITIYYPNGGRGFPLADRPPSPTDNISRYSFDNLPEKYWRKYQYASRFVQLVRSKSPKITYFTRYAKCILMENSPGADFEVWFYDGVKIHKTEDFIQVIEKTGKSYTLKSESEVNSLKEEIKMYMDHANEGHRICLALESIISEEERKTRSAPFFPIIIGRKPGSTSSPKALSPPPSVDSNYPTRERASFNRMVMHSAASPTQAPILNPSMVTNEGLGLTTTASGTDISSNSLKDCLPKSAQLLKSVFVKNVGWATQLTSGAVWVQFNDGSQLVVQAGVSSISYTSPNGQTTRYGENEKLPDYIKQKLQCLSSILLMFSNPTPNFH
Text: (§1) We assessed the selectivity of members of this scaffold using the KINOMEscan methodology across a near comprehensive panel of 442 kinases [[18,27]].

[2] = molecular target: T2, panel of 442 kinases (Homo sapiens, UniProt O00506); details: kinase YSK1; compound concentration 10 µM
T2 construct: purchased KINOMEscan
Text: as §1

[3] = molecular target: T3, panel of 442 kinases (Homo sapiens, UniProt O95819); details: Compound Concentration 10 µM
T3 construct: purchased KINOMEscan
Text: as §1

T2 sequence (O00506 whole entry): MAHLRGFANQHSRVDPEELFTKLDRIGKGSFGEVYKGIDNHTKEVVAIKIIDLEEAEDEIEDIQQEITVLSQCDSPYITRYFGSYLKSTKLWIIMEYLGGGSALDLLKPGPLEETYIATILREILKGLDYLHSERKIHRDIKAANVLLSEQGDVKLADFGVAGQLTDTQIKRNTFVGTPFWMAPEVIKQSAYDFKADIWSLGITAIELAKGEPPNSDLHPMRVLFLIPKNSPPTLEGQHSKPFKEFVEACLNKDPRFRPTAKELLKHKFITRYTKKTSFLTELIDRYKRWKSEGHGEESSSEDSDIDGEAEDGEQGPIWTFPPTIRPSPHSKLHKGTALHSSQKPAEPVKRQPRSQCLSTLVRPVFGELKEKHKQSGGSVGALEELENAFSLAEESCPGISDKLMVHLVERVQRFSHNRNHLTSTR
T3 sequence (O95819 whole entry): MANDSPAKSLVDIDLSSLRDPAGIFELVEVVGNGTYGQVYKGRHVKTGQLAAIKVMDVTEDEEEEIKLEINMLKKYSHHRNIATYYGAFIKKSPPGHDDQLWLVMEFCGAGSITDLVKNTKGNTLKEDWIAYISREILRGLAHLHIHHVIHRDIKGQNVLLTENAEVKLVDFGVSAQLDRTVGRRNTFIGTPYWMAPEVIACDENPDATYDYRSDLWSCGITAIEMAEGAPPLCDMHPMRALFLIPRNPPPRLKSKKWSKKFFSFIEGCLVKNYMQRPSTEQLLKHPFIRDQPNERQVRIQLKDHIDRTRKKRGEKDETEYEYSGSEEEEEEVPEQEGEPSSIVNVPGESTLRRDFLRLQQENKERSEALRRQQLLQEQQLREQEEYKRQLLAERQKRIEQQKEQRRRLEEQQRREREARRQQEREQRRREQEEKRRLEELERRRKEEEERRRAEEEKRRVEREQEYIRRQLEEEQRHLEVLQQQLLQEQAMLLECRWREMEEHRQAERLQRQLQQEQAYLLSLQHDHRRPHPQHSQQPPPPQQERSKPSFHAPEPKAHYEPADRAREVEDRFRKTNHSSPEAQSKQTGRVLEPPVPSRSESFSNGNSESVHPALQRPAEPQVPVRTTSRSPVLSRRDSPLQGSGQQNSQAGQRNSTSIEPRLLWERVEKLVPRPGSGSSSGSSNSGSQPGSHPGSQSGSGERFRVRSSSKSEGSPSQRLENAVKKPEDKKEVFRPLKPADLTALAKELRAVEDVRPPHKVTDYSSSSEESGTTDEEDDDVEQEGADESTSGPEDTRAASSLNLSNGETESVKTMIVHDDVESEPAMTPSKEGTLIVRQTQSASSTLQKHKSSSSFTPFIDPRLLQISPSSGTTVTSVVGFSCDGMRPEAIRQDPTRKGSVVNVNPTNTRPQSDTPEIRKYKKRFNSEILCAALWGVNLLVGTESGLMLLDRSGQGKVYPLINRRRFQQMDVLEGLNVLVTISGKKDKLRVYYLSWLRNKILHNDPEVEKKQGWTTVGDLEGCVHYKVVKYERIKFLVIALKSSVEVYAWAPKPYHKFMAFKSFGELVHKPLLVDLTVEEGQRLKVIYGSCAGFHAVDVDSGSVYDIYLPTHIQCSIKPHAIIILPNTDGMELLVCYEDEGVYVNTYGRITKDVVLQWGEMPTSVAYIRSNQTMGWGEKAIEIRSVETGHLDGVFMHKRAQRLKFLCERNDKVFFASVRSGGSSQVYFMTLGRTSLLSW

| SMILES | KINOMEscan: PLK4 [1] | % Ctrl, YSK1 [2] | KINOMEscan: MAP4K4 [3] |
| --- | --- | --- | --- |
| COc1cc(C(=O)N2CCC(N3CCN(C)CC3)CC2)ccc1Nc1ncc2c(n1)N(C)c1ccccc1C(=O)N2C [15 (LRRK2-IN-1)] | 0 | 68 % Ctrl | 85 |
| COc1cc(C(=O)N2CCC(N3CCN(C)CC3)CC2)ccc1Nc1ncc2c(n1)N1CCc3cccc(c31)C(=O)N2C [Compound 24] | 0.3 | 60 % Ctrl | 35 |
| COc1cc(C(=O)N2CCC(N3CCN(C)CC3)CC2)ccc1Nc1ncc2c(n1)N(C1CCCC1)c1ccccc1C(=O)N2C [Compound 25, 11-cyclopentyl-2-((2-methoxy-4-(4-(4-methylpiperazin-1-yl)piperidine-1-carbonyl)phenyl)amino)-5-methyl-5H-benzo[e]pyrimido[5,4-b][1,4]diazepin-6(11H)-one] | 0.25 | 66 % Ctrl | 98 |
| CCOc1cc(C(=O)N2CCC(N3CCN(C)CC3)CC2)ccc1Nc1ncc2c(n1)N(C1CCCC1)c1ccccc1C(=O)N2C [Compound 26] | 5.1 | 90 % Ctrl | 96 |
